For series [1], the system named is SW1990. Description: Antiproliferative activity against human SW1990 cells assessed as inhibition of cell growth measured after 5 days by MTT assay. The series is classed as functional, cell-based. Conditions: SW1990, 120 h. A general note: Tetrazolium dyes change colour on reduction, which living cells bring about.
In series [2] the test system is SW1990. Nature of the series: Upregulation of E2F2 expression in human SW1990 cells at 6 uM measured after 4 days by Western blot analysis. Format: functional, cell-based. Particulars: time 4.0 day. Background: In western blotting, separated proteins are transferred to a membrane and probed.
A further series deals with HCT-116. Description: Antiproliferative activity against BRCA2-mutated human HCT-116 cells assessed as inhibition of cell growth measured after 7 days by MTT assay. Format: functional, cell-based. Conditions: HCT-116, 168 h.
The subject of series [3] is SW1990. Description: Antiproliferative activity against human SW1990 cells assessed as inhibition of cell growth after 3 days by MTT assay. Format: functional, cell-based. Particulars: SW1990, 72 h.
The subject of series [4] is SW1990. Nature of the series: Antiproliferative activity against human SW1990 cells assessed as inhibition of cell growth measured after 7 days by MTT assay. Particulars: SW1990, 168 h. Format: functional, cell-based.
Series [5] has as its system SW1990. Nature of the series: Upregulation of PARP1 expression in human SW1990 cells at 6 uM measured after 4 days by Western blot analysis. Format: functional, cell-based. Particulars: time 4.0 day.
Series [6] deals with SW1990. Description: Induction of apoptosis in human SW1990 cells assessed as early apoptotic cells at 6 uM measured after 4 days by Annexin V-FITC and propidium iodide staining based flow cytometry (reference value: 1.62%). Format: functional. Particulars: time 4 day. For orientation: In flow cytometry, cells or beads pass a laser one at a time.
Series [7] relates to CFPAC-1. Description: Antiproliferative activity against human CFPAC-1 cells assessed as inhibition of cell growth measured after 3 days by MTT assay. Format: functional, cell-based. Conditions: CFPAC-1, 72 h.
Series [8] deals with SW1990. Nature of the series: Effect on FOXM1 gene expression in human SW1990 cells at 6 uM by Q-PCR analysis. Format: functional, cell-based.
Another series has as its system MDA-MB-468. Description: Antiproliferative activity against BRCA-proficient human MDA-MB-468 cells assessed as inhibition of cell growth measured after 7 days by MTT assay. The series is classed as functional, cell-based. Particulars: MDA-MB-468, 168 h.
The test system of series [9] is SW1990. Nature of the series: Effect on BRCA1 gene expression in human SW1990 cells at 6 uM by Q-PCR analysis. The series is classed as functional, cell-based.
The subject of series [10] is CFPAC-1. Nature of the series: Antiproliferative activity against human CFPAC-1 cells assessed as inhibition of cell growth measured after 7 days by MTT assay. Format: functional, cell-based. Conditions: CFPAC-1, 168 h.
Series [11] relates to Mus musculus. Nature of the series: Upregulation of CDK1 expression in nude mouse xenografted with human SW1990 cells at 45 mg/kg, ip measured after 4 days by Western blot analysis. Conditions: time 4.0 day. Format: functional, organism-based.
In series [12] the test system is SW1990. Description: Induction of apoptosis in human SW1990 cells assessed as necrotic cells at 6 uM measured after 4 days by Annexin V-FITC and propidium iodide staining based flow cytometry (reference value: 2.45%). Particulars: time 4 day. The series is classed as functional.
The subject of series [13] is CAPAN-1. Description: Antiproliferative activity against human CAPAN-1 cells assessed as inhibition of cell growth measured after 3 days by MTT assay. The series is classed as functional, cell-based. Conditions: CAPAN-1, 72 h.
The subject of series [14] is SW1990. Nature of the series: Effect on MDC1 gene expression in human SW1990 cells at 6 uM by Q-PCR analysis. Format: functional, cell-based.
Series [15] has as its system CAPAN-1. Description: Antiproliferative activity against human CAPAN-1 cells assessed as inhibition of cell growth measured after 7 days by MTT assay. Conditions: CAPAN-1, 168 h. The series is classed as functional, cell-based.
For series [16], the system named is CAPAN-1. Nature of the series: Antiproliferative activity against human CAPAN-1 cells assessed as inhibition of cell growth measured after 5 days by MTT assay. The series is classed as functional, cell-based. Particulars: CAPAN-1, 120 h.
The subject of series [17] is SW1990. Description: Upregulation of BRCA1 expression in human SW1990 cells at 6 uM measured after 4 days by Western blot analysis. The series is classed as functional, cell-based. Conditions: time 4.0 day.
A further series deals with THP-1. Description: Antiproliferative activity against human THP-1 cells expressing BRD4 assessed as inhibition of cell growth measured after 3 days by MTT assay. The series is classed as functional, cell-based. Particulars: THP-1, 72 h.
Series [18] concerns CFPAC-1. Nature of the series: Antiproliferative activity against human CFPAC-1 cells assessed as inhibition of cell growth measured after 5 days by MTT assay. Format: functional, cell-based. Particulars: CFPAC-1, 120 h.
Series [19] has as its system SW1990. Description: Effect on CDK6 gene expression in human SW1990 cells at 4 uM by Q-PCR analysis. Format: functional, cell-based.
Series [20] is filed under the species Mus musculus. Conditions: dose 15.0 mg/kg, route ip, time 28.0 day.
In series [21] the test system is SW1990. Description: Effect on CCNB1 gene expression in human SW1990 cells at 4 uM by Q-PCR analysis. The series is classed as functional, cell-based.
For series [22], the system named is SW1990. Description: Induction of apoptosis in human SW1990 cells assessed as late apoptotic cells at 4 uM measured after 4 days by Annexin V-FITC and propidium iodide staining based flow cytometry (reference value: 7.23%). Format: functional. Conditions: time 4 day.
Series [23] concerns SW1990. Nature of the series: Effect on HEXIM1 gene expression in human SW1990 cells at 1 uM in presence of Olaparib by Q-PCR analysis. Format: functional, cell-based.
The test system of series [24] is SW1990. Nature of the series: Effect on BRCA1 gene expression in human SW1990 cells at 1 uM in presence of Olaparib by Q-PCR analysis. Format: functional, cell-based.
For series [25], the system named is SW1990. Nature of the series: Effect on c-Myc gene expression in human SW1990 cells at 4 uM by Q-PCR analysis. The series is classed as functional, cell-based.
For series [26], the system named is CFPAC-1. Description: Antiproliferative activity against human CFPAC-1 cells assessed as inhibition of cell growth measured after 4 days by MTT assay. The series is classed as functional, cell-based. Particulars: CFPAC-1, 96 h.
Series [27] has as its system SW1990. Description: Effect on FOXO1 gene expression in human SW1990 cells at 1 uM in presence of Olaparib by Q-PCR analysis. Format: functional, cell-based.
Series [28] relates to SW1990. Nature of the series: Effect on E2F2 gene expression in human SW1990 cells at 1 uM in presence of Olaparib by Q-PCR analysis. The series is classed as functional, cell-based.
The test system of series [29] is Mus musculus. Description: Inhibition of CCNB1 expression in nude mouse xenografted with human SW1990 cells at 30 mg/kg, ip measured after 4 days by Q-PCR analysis. The series is classed as functional, organism-based. Particulars: time 4.0 day.
Series [30] in a line: Toxicity in nude mouse xenografted with human SW1990 cells assessed as spleen damage at 30 mg/kg, ip administered for 28 days by H and E staining based fluorescence microscopic analysis. Particulars: in vivo, 672 h, time 28 day. The series is classed as organism-based.
Series [31] deals with SW1990. Nature of the series: Inhibition of CDC25B protein expression in human SW1990 cells at 1 to 2 uM measured after 4 days by Western blot analysis. Format: functional, cell-based. Conditions: dose 1-2 µM, time 4.0 day.
Series [32] deals with SW1990. Nature of the series: Effect on CCND1 gene expression in human SW1990 cells at 1 to 2 uM by Q-PCR analysis. Format: functional, cell-based. Conditions: dose 1-2 µM.
The nature of series [33]: Toxicity in nude mouse xenografted with human SW1990 cells assessed as lung damage at 30 mg/kg, ip administered for 28 days by H and E staining based fluorescence microscopic analysis. Format: organism-based. Particulars: in vivo, 672 h, time 28 day.
In series [34] the test system is SW1990. Nature of the series: Effect on CDK1 to 2 gene expression in human SW1990 cells at 1 to 2 uM by Q-PCR analysis. Format: functional, cell-based. Particulars: dose 1-2 µM.
In series [35] the test system is Mus musculus. Nature of the series: Inhibition of homologous recombinant repair in nude mouse xenografted with human SW1990 cells assessed as reversal of olaparib-induced c-Myc expression at 30 mg/kg, ip measured after 4 days by Western blot analysis. Format: functional, organism-based. Conditions: time 4.0 day.
The subject of series [36] is SW1990. Description: Antitumor activity against human SW1990 cells xenografted in nude mouse assessed as reduction in tumor size at 30 mg/kg, ip administered for 28 days and measured every 3 days by vernier caliper method. Format: functional, organism-based. Conditions: time 28.0 day.
Series [37] relates to Mus musculus. Description: Inhibition of BRD4 expression in nude mouse xenografted with human SW1900 cells at 30 mg/kg, ip administered for 28 days by DAPI staining based laser confocal microscopic analysis. The series is classed as functional, organism-based. Conditions: time 28.0 day.
Series [38] has as its system SW1990. Nature of the series: Inhibition of E2F2 protein expression in human SW1990 cells at 1 to 2 uM measured after 4 days by Western blot analysis. Conditions: dose 1-2 µM, time 4.0 day. The series is classed as functional, cell-based.

The source made the active and inactive calls. The calls are words filed in the database; no cut-off is given here.

As usually defined, the IC50 is the midpoint of a concentration-inhibition curve. Regarding `O=C(c1cc(Cc2n[nH]c(=O)c3ccccc23)ccc1F)N1CCN(C(=O)C2CC2)CC1` [OLAPARIB], the IC50 with SW1990 [1] is 4930 nM; in the series on HCT-116, 7320 nM; in the series on SW1990 [3], 19400 nM; with SW1990 [4] it was 3630 nM; in the series on CFPAC-1 [7], 28700 nM; with MDA-MB-468, 1830 nM. Also, the 50% inhibitory concentration (IC50) in the series on CFPAC-1 [10] came out at 7440 nM; in the series with CAPAN-1 [13] it was 25200 nM; in the series on CAPAN-1 [15], 2610 nM; in the series on CAPAN-1 [16], 5340 nM; with THP-1, 32300 nM; in the series on CFPAC-1 [18], 9870 nM. Further, the result in the series with SW1990 [2], in the series on SW1990 [5], with SW1990 [8], in the series with SW1990 [9], with Mus musculus [11] and in the series with SW1990 [14] was Active. Besides, the result in the series on SW1990 [17] was Active. The Activity came to 1.84% with SW1990 [6] and 1.66% in the series on SW1990 [12].
Consider `Cc1sc2c(c1C)C(c1ccc(Cl)cc1)=N[C@@H](CC(=O)OC(C)(C)C)c1nnc(C)n1-2`, for which the IC50 in the series on SW1990 [1] worked out at 1110 nM; in the series with HCT-116, 2030 nM; with SW1990 [3], 31600 nM; in the series with SW1990 [4] it was 630 nM; in the series with CFPAC-1 [7], 13900 nM; with MDA-MB-468 it was 540 nM. The IC50 amounted to 350 nM in the series on CFPAC-1 [10]; 1860 nM in the series on CFPAC-1 [26]; 24100 nM in the series with CAPAN-1 [13]; 450 nM in the series with CAPAN-1 [15]; 580 nM with CAPAN-1 [16] (read-out: IC50); 330 nM with THP-1. In addition, the outcome in the series on SW1990 [19], with SW1990 [21], in the series with SW1990 [23], in the series on SW1990 [24], in the series on SW1990 [25] and with SW1990 [27] was Active. The result in the series on SW1990 [28] was Active. Also, the inhibition entry in the series listed under Mus musculus [20] is “Active”. In addition, the Activity with SW1990 [22] is recorded as 24.9%.
`Cc1noc(C)c1-c1ccc2c(c1)C(c1ccccc1)N(Cc1nc3c(C(N)=O)cccc3[nH]1)C(=O)N2C` (stereo not given): the IC50 in the series with SW1990 [1] worked out at 980 nM; with HCT-116 it was 1440 nM; in the series with SW1990 [3], 11700 nM; in the series with SW1990 [4], 560 nM; in the series with CFPAC-1 [7], 2430 nM; in the series with MDA-MB-468, 90 nM. In addition, the 50% inhibitory concentration (IC50) in the series with CFPAC-1 [10] stood at 210 nM; with CFPAC-1 [26], 1310 nM; in the series on CAPAN-1 [13], 7210 nM; in the series with CAPAN-1 [15], 170 nM; in the series on CAPAN-1 [16] (read-out: IC50), 410 nM; in the series with THP-1 it was 430 nM. Further, the IC50 in the series with CFPAC-1 [18] came out at 980 nM. The inhibition result in the series with Mus musculus [29], with SW1990 [31], in the series with Mus musculus [35], in the series with Mus musculus [37] and with SW1990 [38] was “Active” throughout. In addition, the Activity entry in series [30] and in [33] was “Non-Toxic” in each case. The outcome in the series on SW1990 [32], in the series with SW1990 [34] and in the series with SW1990 [36] was Active.

Values taken from ChEMBL document CHEMBL5131471, “Design, synthesis and mechanism studies of novel dual PARP1/BRD4 inhibitors against pancreatic cancer” (Eur J Med Chem, 2022).
